Data taken from ChEMBL document CHEMBL3112480, “γ-Alkylidene-γ-lactones and isobutylpyrrol-2(5H)-ones analogues to rubrolides as inhibitors of biofilm formation by gram-positive and gram-negative bacteria” (Bioorg Med Chem Lett, 2014).
In brackets after ≈: the same amount, converted by molar mass.

Tests used:
Streptococcus mutans [1] = assay: Antibacterial activity against Streptococcus mutans ATCC 25175 assessed as effect on planktonic growth at 21.9 ug/ml after 20 hrs relative to control; type: functional
Streptococcus mutans [2] = assay: Antibacterial activity against Streptococcus mutans ATCC 25175 assessed as effect on planktonic growth at 43.8 ug/ml after 20 hrs relative to control; type: functional
Streptococcus mutans [3] = assay: Antibacterial activity against Streptococcus mutans ATCC 25175 assessed as effect on planktonic growth at 87.5 ug/ml after 20 hrs relative to control; type: functional
Staphylococcus aureus [4] = assay: Antibacterial activity against Staphylococcus aureus ATCC 25923 assessed as effect on planktonic growth at 0.17 ug/ml after 20 hrs relative to control; type: functional
Staphylococcus aureus [5] = assay: Antibacterial activity against Staphylococcus aureus ATCC 25923 assessed as effect on planktonic growth at 0.34 ug/ml after 20 hrs relative to control; type: functional
Staphylococcus aureus [6] = assay: Antibacterial activity against Staphylococcus aureus ATCC 25923 assessed as effect on planktonic growth at 0.68 ug/ml after 20 hrs relative to control; type: functional
Staphylococcus aureus [7] = assay: Antibacterial activity against Staphylococcus aureus ATCC 25923 assessed as effect on planktonic growth at 1.37 ug/ml after 20 hrs relative to control; type: functional
Staphylococcus aureus [8] = assay: Antibacterial activity against Staphylococcus aureus ATCC 25923 assessed as effect on planktonic growth at 5.5 ug/ml after 20 hrs relative to control; type: functional
Staphylococcus aureus [9] = assay: Antibacterial activity against Staphylococcus aureus ATCC 25923 assessed as effect on planktonic growth at 2.73 ug/ml after 20 hrs relative to control; type: functional
Staphylococcus aureus [10] = assay: Antibacterial activity against Staphylococcus aureus ATCC 25923 assessed as effect on planktonic growth at 10.9 ug/ml after 20 hrs relative to control; type: functional
Staphylococcus aureus [11] = assay: Antibacterial activity against Staphylococcus aureus ATCC 25923 assessed as effect on planktonic growth at 21.9 ug/ml after 20 hrs relative to control; type: functional
Staphylococcus aureus [12] = assay: Antibacterial activity against Staphylococcus aureus ATCC 25923 assessed as effect on planktonic growth at 43.8 ug/ml after 20 hrs relative to control; type: functional
Staphylococcus aureus [13] = assay: Antibacterial activity against Staphylococcus aureus ATCC 25923 assessed as effect on planktonic growth at 87.5 ug/ml after 20 hrs relative to control; type: functional
Pseudomonas aeruginosa [14] = assay: Antibacterial activity against Pseudomonas aeruginosa ATCC 27853 assessed as effect on planktonic growth at 0.17 ug/ml after 20 hrs relative to control; type: functional
Pseudomonas aeruginosa [15] = assay: Antibacterial activity against Pseudomonas aeruginosa ATCC 27853 assessed as effect on planktonic growth at 0.34 ug/ml after 20 hrs relative to control; type: functional
Pseudomonas aeruginosa [16] = assay: Antibacterial activity against Pseudomonas aeruginosa ATCC 27853 assessed as effect on planktonic growth at 0.68 ug/ml after 20 hrs relative to control; type: functional
Pseudomonas aeruginosa [17] = assay: Antibacterial activity against Pseudomonas aeruginosa ATCC 27853 assessed as effect on planktonic growth at 1.37 ug/ml after 20 hrs relative to control; type: functional
Pseudomonas aeruginosa [18] = assay: Antibacterial activity against Pseudomonas aeruginosa ATCC 27853 assessed as effect on planktonic growth at 2.73 ug/ml after 20 hrs relative to control; type: functional
Pseudomonas aeruginosa [19] = assay: Antibacterial activity against Pseudomonas aeruginosa ATCC 27853 assessed as effect on planktonic growth at 5.5 ug/ml after 20 hrs relative to control; type: functional
Pseudomonas aeruginosa [20] = assay: Antibacterial activity against Pseudomonas aeruginosa ATCC 27853 assessed as effect on planktonic growth at 10.9 ug/ml after 20 hrs relative to control; type: functional
Pseudomonas aeruginosa [21] = assay: Antibacterial activity against Pseudomonas aeruginosa ATCC 27853 assessed as effect on planktonic growth at 21.9 ug/ml after 20 hrs relative to control; type: functional
Pseudomonas aeruginosa [22] = assay: Antibacterial activity against Pseudomonas aeruginosa ATCC 27853 assessed as effect on planktonic growth at 43.8 ug/ml after 20 hrs relative to control; type: functional
Pseudomonas aeruginosa [23] = assay: Antibacterial activity against Pseudomonas aeruginosa ATCC 27853 assessed as effect on planktonic growth at 87.5 ug/ml after 20 hrs relative to control; type: functional
[24] = tested on: Staphylococcus epidermidis; assay: Antibacterial activity against Staphylococcus epidermidis ATCC 35547 assessed as effect on planktonic growth at 0.17 ug/ml after 20 hrs relative to control; type: functional
[25] = tested on: Staphylococcus epidermidis; assay: Antibacterial activity against Staphylococcus epidermidis ATCC 35547 assessed as effect on planktonic growth at 0.34 ug/ml after 20 hrs relative to control; type: functional
[26] = tested on: Staphylococcus epidermidis; assay: Antibacterial activity against Staphylococcus epidermidis ATCC 35547 assessed as effect on planktonic growth at 0.68 ug/ml after 20 hrs relative to control; type: functional
[27] = tested on: Staphylococcus epidermidis; assay: Antibacterial activity against Staphylococcus epidermidis ATCC 35547 assessed as effect on planktonic growth at 1.37 ug/ml after 20 hrs relative to control; type: functional
[28] = tested on: Staphylococcus epidermidis; assay: Antibacterial activity against Staphylococcus epidermidis ATCC 35547 assessed as effect on planktonic growth at 2.73 ug/ml after 20 hrs relative to control; type: functional
[29] = tested on: Staphylococcus epidermidis; assay: Antibacterial activity against Staphylococcus epidermidis ATCC 35547 assessed as effect on planktonic growth at 5.5 ug/ml after 20 hrs relative to control; type: functional
[30] = tested on: Staphylococcus epidermidis; assay: Antibacterial activity against Staphylococcus epidermidis ATCC 35547 assessed as effect on planktonic growth at 10.9 ug/ml after 20 hrs relative to control; type: functional
[31] = tested on: Staphylococcus epidermidis; assay: Antibacterial activity against Staphylococcus epidermidis ATCC 35547 assessed as effect on planktonic growth at 21.9 ug/ml after 20 hrs relative to control; type: functional
[32] = tested on: Staphylococcus epidermidis; assay: Antibacterial activity against Staphylococcus epidermidis ATCC 35547 assessed as effect on planktonic growth at 43.8 ug/ml after 20 hrs relative to control; type: functional
[33] = tested on: Staphylococcus epidermidis; assay: Antibacterial activity against Staphylococcus epidermidis ATCC 35547 assessed as effect on planktonic growth at 87.5 ug/ml after 20 hrs relative to control; type: functional
Pseudomonas aeruginosa [34] = assay: Antibacterial activity against Pseudomonas aeruginosa ATCC 27853 assessed as inhibition of biofilm formation after 20 hrs by crystal-violet staining method; type: functional, organism-based; conditions: for IC50: ATCC 27853, 20 h
[35] = tested on: Staphylococcus epidermidis; assay: Antibacterial activity against Staphylococcus epidermidis ATCC 35547 assessed as inhibition of biofilm formation after 20 hrs by crystal-violet staining method; type: functional, organism-based; conditions: for IC50: ATCC 35547, 20 h
Streptococcus mutans [36] = assay: Antibacterial activity against Streptococcus mutans ATCC 25175 assessed as effect on planktonic growth at 0.17 ug/ml after 20 hrs relative to control; type: functional
Streptococcus mutans [37] = assay: Antibacterial activity against Streptococcus mutans ATCC 25175 assessed as effect on planktonic growth at 0.34 ug/ml after 20 hrs relative to control; type: functional
Streptococcus mutans [38] = assay: Antibacterial activity against Streptococcus mutans ATCC 25175 assessed as effect on planktonic growth at 0.68 ug/ml after 20 hrs relative to control; type: functional
Streptococcus mutans [39] = assay: Antibacterial activity against Streptococcus mutans ATCC 25175 assessed as effect on planktonic growth at 1.37 ug/ml after 20 hrs relative to control; type: functional
Streptococcus mutans [40] = assay: Antibacterial activity against Streptococcus mutans ATCC 25175 assessed as effect on planktonic growth at 2.73 ug/ml after 20 hrs relative to control; type: functional
Streptococcus mutans [41] = assay: Antibacterial activity against Streptococcus mutans ATCC 25175 assessed as effect on planktonic growth at 5.5 ug/ml after 20 hrs relative to control; type: functional
Streptococcus mutans [42] = assay: Antibacterial activity against Streptococcus mutans ATCC 25175 assessed as effect on planktonic growth at 10.9 ug/ml after 20 hrs relative to control; type: functional

## COc1ccc(Cl)cc1C1=C(Br)C(=O)O/C1=C\c1ccccc1Br
Streptococcus mutans [1]
  Activity: 22.8%
Streptococcus mutans [2]
  Activity: 26.9%
Streptococcus mutans [3]
  Activity: 57.5%
Staphylococcus aureus [4]
  Activity: -7.9%
Staphylococcus aureus [5]
  Activity: -10%
Staphylococcus aureus [6]
  Activity: -10.6%
Staphylococcus aureus [7]
  Activity: -14%
Staphylococcus aureus [8]
  Activity: -16.7%
Staphylococcus aureus [9]
  Activity: -14.4%
Staphylococcus aureus [10]
  Activity: -16.9%
Staphylococcus aureus [11]
  Activity: -8.3%
Staphylococcus aureus [12]
  Activity: -2.9%
Staphylococcus aureus [13]
  Activity: 14.6%
Pseudomonas aeruginosa [14]
  Activity: -3.8%
Pseudomonas aeruginosa [15]
  Activity: -5.3%
Pseudomonas aeruginosa [16]
  Activity: -5.1%
Pseudomonas aeruginosa [17]
  Activity: -7%
Pseudomonas aeruginosa [18]
  Activity: -7.7%
Pseudomonas aeruginosa [19]
  Activity: -8.1%
Pseudomonas aeruginosa [20]
  Activity: -5.2%
Pseudomonas aeruginosa [21]
  Activity: -13.4%
Pseudomonas aeruginosa [22]
  Activity: -9.1%
Pseudomonas aeruginosa [23]
  Activity: -8.2%
[24]
  Activity: 9.5%
[25]
  Activity: 51.8%
[26]
  Activity: 11.1%
[27]
  Activity: 2.5%
[28]
  Activity: 2.9%
[29]
  Activity: 3.9%
[30]
  Activity: 12.1%
[31]
  Activity: 27.3%
[32]
  Activity: 42.5%
[33]
  Activity: 74.6%
Pseudomonas aeruginosa [34]
  inhibition: Dose-dependent effect
  IC50: 3.9 µg/mL (≈ 8.29 µM)
[35]
  inhibition: Dose-dependent effect
  IC50: 48 µg/mL (≈ 102 µM)
Streptococcus mutans [36]
  Activity: 19%
Streptococcus mutans [37]
  Activity: 5.6%
Streptococcus mutans [38]
  Activity: 5.6%
Streptococcus mutans [39]
  Activity: 4.5%
Streptococcus mutans [40]
  Activity: 4.1%
Streptococcus mutans [41]
  Activity: 8.6%
Streptococcus mutans [42]
  Activity: 8.2%

## COc1ccc(Br)cc1C1=C(Br)C(=O)O/C1=C\c1cccc(Cl)c1
Streptococcus mutans [1]
  Activity: -5.8%
Streptococcus mutans [2]
  Activity: 0.5%
Streptococcus mutans [3]
  Activity: 14.9%
Staphylococcus aureus [4]
  Activity: 13.8%
Staphylococcus aureus [5]
  Activity: 14.5%
Staphylococcus aureus [6]
  Activity: 20%
Staphylococcus aureus [7]
  Activity: 27%
Staphylococcus aureus [8]
  Activity: 36.6%
Staphylococcus aureus [9]
  Activity: 30.1%
Staphylococcus aureus [10]
  Activity: 43.6%
Staphylococcus aureus [11]
  Activity: 43.1%
Staphylococcus aureus [12]
  Activity: 75.8%
Staphylococcus aureus [13]
  Activity: 121.6%
Pseudomonas aeruginosa [14]
  Activity: 1.4%
Pseudomonas aeruginosa [15]
  Activity: 0.3%
Pseudomonas aeruginosa [16]
  Activity: -3.1%
Pseudomonas aeruginosa [17]
  Activity: -13.2%
Pseudomonas aeruginosa [18]
  Activity: -21.1%
Pseudomonas aeruginosa [19]
  Activity: -19.8%
Pseudomonas aeruginosa [20]
  Activity: -16.9%
Pseudomonas aeruginosa [21]
  Activity: -15%
Pseudomonas aeruginosa [22]
  Activity: -9.5%
Pseudomonas aeruginosa [23]
  Activity: -7.3%
[24]
  Activity: -1.7%
[25]
  Activity: -6.1%
[26]
  Activity: -1.6%
[27]
  Activity: -2.4%
[28]
  Activity: 0.1%
[29]
  Activity: 1.6%
[30]
  Activity: 8.6%
[31]
  Activity: 8.8%
[32]
  Activity: 20.6%
[33]
  Activity: 28.4%
Pseudomonas aeruginosa [34]
  inhibition: Dose-dependent effect
  IC50: > 87.5 µg/mL
[35]
  inhibition: Dose-dependent effect
  IC50: 40 µg/mL (≈ 85 µM)
Streptococcus mutans [36]
  Activity: -1%
Streptococcus mutans [37]
  Activity: 7.6%
Streptococcus mutans [38]
  Activity: 8.4%
Streptococcus mutans [39]
  Activity: 8.9%
Streptococcus mutans [40]
  Activity: 16.2%
Streptococcus mutans [41]
  Activity: 12.4%
Streptococcus mutans [42]
  Activity: 13.4%

## COc1cccc(/C=C2\OC(=O)C(Br)=C2c2cc(Cl)ccc2OC)c1
Streptococcus mutans [1]
  Activity: 14%
Streptococcus mutans [2]
  Activity: 22.7%
Streptococcus mutans [3]
  Activity: 49%
Staphylococcus aureus [4]
  Activity: 10.3%
Staphylococcus aureus [5]
  Activity: 30.5%
Staphylococcus aureus [6]
  Activity: 47.2%
Staphylococcus aureus [7]
  Activity: 52.1%
Staphylococcus aureus [8]
  Activity: 34.4%
Staphylococcus aureus [9]
  Activity: 39.5%
Staphylococcus aureus [10]
  Activity: 43.1%
Staphylococcus aureus [11]
  Activity: 47.2%
Staphylococcus aureus [12]
  Activity: 80.5%
Staphylococcus aureus [13]
  Activity: 134.6%
Pseudomonas aeruginosa [14]
  Activity: -1.2%
Pseudomonas aeruginosa [15]
  Activity: 0.5%
Pseudomonas aeruginosa [16]
  Activity: 0.7%
Pseudomonas aeruginosa [17]
  Activity: -7.3%
Pseudomonas aeruginosa [18]
  Activity: -16%
Pseudomonas aeruginosa [19]
  Activity: -19.4%
Pseudomonas aeruginosa [20]
  Activity: -14.8%
Pseudomonas aeruginosa [21]
  Activity: -11.6%
Pseudomonas aeruginosa [22]
  Activity: -8.7%
Pseudomonas aeruginosa [23]
  Activity: -9.5%
[24]
  Activity: 3.7%
[25]
  Activity: 0.1%
[26]
  Activity: -1.5%
[27]
  Activity: -4.7%
[28]
  Activity: -2.4%
[29]
  Activity: -4.6%
[30]
  Activity: -5.5%
[31]
  Activity: -1.3%
[32]
  Activity: 5.6%
[33]
  Activity: 10.6%
Pseudomonas aeruginosa [34]
  inhibition: Dose-dependent effect
  IC50: 1.7 µg/mL (≈ 4.03 µM)
[35]
  inhibition: Dose-dependent effect
  IC50: > 87.5 µg/mL
Streptococcus mutans [36]
  Activity: 26.9%
Streptococcus mutans [37]
  Activity: 25.7%
Streptococcus mutans [38]
  Activity: 23.9%
Streptococcus mutans [39]
  Activity: 34.3%
Streptococcus mutans [40]
  Activity: 37.3%
Streptococcus mutans [41]
  Activity: 19.7%
Streptococcus mutans [42]
  Activity: 18.8%
